{"source": "patent US7671211B1", "about": "“Substrates for thioredoxin reductase” (priority 1999, dated 2010)", "molecules": {"B1": {"name": "human Trx-S2: oxidized human thioredoxin, protein substrate of thioredoxin reductase, used for comparison of Km and Kcal (protein, UniProt P10599 2-105, looked up)", "Thioredoxin": "VKQIESKTAFQEALDAAGDKLVVVDFSATWCGPCKMIKPFFHSLSEKYSNVIFLEVDVDDCQDVASECEVKCMPTFQFFKKGQKVGEFSGANKEKLEATINELV", "modifications": "oxidized", "notes": "oxidized human thioredoxin, protein substrate of thioredoxin reductase, used for comparison of Km and Kcal"}}, "key": {"[1]": {"target": "T1, human thioredoxin reductase (Homo sapiens, UniProt Q16881)", "T1 construct": "Thioredoxin reductase (TrxR) from human placenta were purified to homogeneity; from tissue; host or cells: human placenta", "T1 sequence (Q16881 1-499 isoform Q16881-5)": "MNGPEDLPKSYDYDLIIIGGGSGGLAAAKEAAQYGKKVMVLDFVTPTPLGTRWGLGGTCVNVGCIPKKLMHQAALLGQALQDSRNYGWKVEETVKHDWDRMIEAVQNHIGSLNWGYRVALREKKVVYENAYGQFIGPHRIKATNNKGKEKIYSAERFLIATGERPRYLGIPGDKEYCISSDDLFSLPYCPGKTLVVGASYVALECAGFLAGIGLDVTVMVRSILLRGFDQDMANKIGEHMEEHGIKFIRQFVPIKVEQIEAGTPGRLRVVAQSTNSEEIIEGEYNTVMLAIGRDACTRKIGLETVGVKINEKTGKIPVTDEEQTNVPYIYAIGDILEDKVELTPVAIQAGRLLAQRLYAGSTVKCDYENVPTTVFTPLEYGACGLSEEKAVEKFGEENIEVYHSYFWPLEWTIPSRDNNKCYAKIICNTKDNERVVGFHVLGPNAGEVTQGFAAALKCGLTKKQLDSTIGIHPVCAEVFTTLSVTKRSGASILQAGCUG", "test": "Reduction of hydrogen peroxide by human thioredoxin reductase (hydrogen peroxide reductase activity)", "format": "biochemical", "settings": "hydrogen peroxide 2 mM, TrxR 17 nM, human Trx 5 μM"}, "E.coli Trx-(SH)2": {"target": "E.coli Trx-(SH)2 (Escherichia coli, UniProt P0AA25)", "sequence (P0AA25 whole entry)": "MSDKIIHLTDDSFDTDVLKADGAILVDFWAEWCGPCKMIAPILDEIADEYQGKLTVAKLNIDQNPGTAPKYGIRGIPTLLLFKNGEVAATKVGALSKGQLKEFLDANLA", "test": "Oxidation of E.coli Trx-(SH)2 by compound A determined by fluorescence spectroscopy", "format": "biochemical", "settings": "0.1 μM Trx-(SH)2 mixed with 0.1 μM compound A, pH 7.5, 22° C.", "method": "Protein fluorescence was measured with a thermostated SPEX-Fluoro Max instrument. Trx-(SH)2 was prepared from E.coli Trx-S2 640 μM which was incubated at room temperature for 20 min with 10 mM DTT. DTT was subsequently removed by gel chromatography (on a NAP-5 column (Pharmacia) using N2 equilibrated buffer). Trx-(SH)2 was mixed with Compound A dissolved in a total volume of 3 ml of a mixture (pH 7.5) of 0.1 M potassium phosphate and 1 mM EDTA, and fluorescence was immediately measured in the spectrofluorimeter at 22° C. Excitation of fluorescence was at 290 nm and emission spectra from 300 to 500 nm were recorded. Fluorescence at 340 nm was used to follow the oxidation of Trx-(SH)2 to record the rate of the reaction.\nMammalian and E.coli Trx have the same active site GPC and reactivity with disulfides. […] N2 equilibrated 0.1 M potassium phosphate was added with 0.1 μM (1.2 μg/ml) of E.coli Trx-(SH)2 and then with 1 mM EDTA (pH 7.5) to prepare a sample. Fluorescence of the sample was excited at 290 nm. The […] at the wavelength range from 300 to 500 nm was recorded. Then 0.1 μM of compound A was added and a spectrum was recorded. […] This is the fastest reaction for oxidation of reduced thioedoxin by a low molecular weight compound."}, "[2]": {"target": "T1, human thioredoxin reductase", "test": "Reduction of Compound A by human thioredoxin reductase (NADPH oxidation at 340 nm, selenol detection with DTNB)", "format": "biochemical", "method": "(§1) Measurements of thioredoxin reductase activity were performed in TF buffer (50 mM Tris-Cl, 1 mM EDTA, pH 7.5) with 100 μM NADPH and a given amount of Compound A. Reactions were carried out with addition of 5 or 10 μl of stock solution of thioredoxin reductase in a final volume of 0.55 ml. Cuvettes used as reference contained the same amount of DMSO as in the samples and also thioredoxin reductase. Absorbance of the control cuvette was automatically subtracted by the spectrophotometer. The reactions were followed at 340 nm.\nCompound A absorbs at 340 nm with a 4,000 M^−1cm^−1 molar extinction coefficient, and N-phenyl-2-carboxamidobenzene selenol, the reduction product of selenol by a dithiol, has half the absorption (2000 M^−1cm^−1) at 340 nm. The formation of the compound A-selenol was confirmed by measuring absorption spectra in the presence or absence of excess DTT. In calculations of the formation of compound A-selenol, a molar extinction coefficient of 8,200 M^−1cm^−1 was used since oxidation of NADPH to NADP^+ yields 6,200 M^−1cm^−1.\nCompound A 50 μM (●) or 100 μM (□) was dissolved in 0.55 ml of a solution containing 50 mM Tris-Cl, 1 mM EDTA (pH 7.5) and 100 μM NADPH, and mixed with 40 nM human thioredoxin reductase. Absorbance at 340 nm was measured and corrected against the blank value (with the same amounts of enzyme, but without compound A). The same experiments using 50 μm (●) and 100 μM (Δ) Compound A mixed with 17 nM enzyme were performed.\nThe reaction was fast since with 50 μM Compound A the reaction was complete after 1 min. […] When 6 M guanidine hydrochloride containing DTNB was added to the cuvette at 7 min, an absorbance at 412 nm of 0.400 was measured indicating formation of selenol groups. Compound A itself gave no reaction with DTNB. The reaction with 100 μM compound A was seemingly slower from the decrease in absorbance at 340 nm using 40 nM enzyme."}, "[3]": {"target": "T1, human thioredoxin reductase", "test": "Reduction of hydrogen peroxide by human thioredoxin reductase (hydrogen peroxide reductase activity)", "format": "biochemical", "settings": "for effect on reaction rate of hydrogen peroxide reduction: 4.5 μM Trx; for turnover of enzyme (hydrogen peroxide reduction) / fold increase of hydrogen peroxide reductase activity: 0.5 mM hydrogen peroxide, 17 nM human TrxR; for fold increase of hydrogen peroxide reductase activity: versus enzyme alone", "method": "as §1\n[…] The absorbance at 340 nm was determined against a blank with 17 nM thioredoxin reductase but without hydrogen peroxide. As a result, with 0.50 mM hydroperoxide a turnover number of 30×min^−1 was calculated. Addition of 2 μM compound A stimulated the activity with the enzyme which increased its activity to a turnover of 450×min^−1 or 15-fold. […] Thus, Compound A acts to dramatically increase the hydrogen peroxide reductase activity of thioredoxin reductase and also acts as a thioredoxin peroxidase mimic.\nAddition of 4.5 μM thioredoxin to 17 nM thioredoxin reductase stimulated the reduction of hydrogen peroxide. […] The same conditions as in FIG. 5 were applied with only 17 nM thioredoxin reductase (●) and addition of 4.5 μM Trx (Δ). Then […] was added to adjust the final compound A concentration to […].\nThus compound A increased activity of the enzyme with lower more physiologically relevant concentrations, and this increase was about 25-fold. […] Activity is expressed as the variation ratio per min, ΔA340/min. […]"}, "[4]": {"target": "T2, calf thymus thioredoxin reductase (Bos taurus, UniProt O62768)", "T2 construct": "Thioredoxin reductase (TrxR) from calf thymus or human placenta were purified to homogeneity; from tissue; host or cells: calf thymus", "T2 sequence (O62768 1-499)": "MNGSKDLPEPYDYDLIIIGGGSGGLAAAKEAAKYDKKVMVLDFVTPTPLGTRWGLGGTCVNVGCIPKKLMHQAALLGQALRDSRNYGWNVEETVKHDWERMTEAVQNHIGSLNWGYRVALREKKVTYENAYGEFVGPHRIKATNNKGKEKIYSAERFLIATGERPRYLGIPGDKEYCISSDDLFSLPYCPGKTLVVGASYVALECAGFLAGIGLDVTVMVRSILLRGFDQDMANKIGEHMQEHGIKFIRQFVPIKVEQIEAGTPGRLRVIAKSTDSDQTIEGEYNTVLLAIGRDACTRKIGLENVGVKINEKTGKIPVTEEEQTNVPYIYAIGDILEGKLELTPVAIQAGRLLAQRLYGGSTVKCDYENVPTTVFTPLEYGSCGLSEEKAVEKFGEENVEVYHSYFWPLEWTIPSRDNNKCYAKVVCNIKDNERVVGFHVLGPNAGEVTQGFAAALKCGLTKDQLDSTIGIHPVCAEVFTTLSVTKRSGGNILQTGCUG", "test": "Reduction of DTNB by thioredoxin reductase", "format": "biochemical", "method": "(§2) The activity of thioredoxin reductase was determined in the insulin assay. A mixture of 100 mM potassium phosphate (pH 7.0), 2 mM NADPH, and 0.16 mM insulin was added with Compound A and thioredoxin, and then with thioredoxin reductase in a total volume of 0.55 ml for the reaction. The progress of reduction of insulin disulfides was followed at 340 nm. Generated sulfhydryl or selenol groups were measured at 412 nm by addition of 0.50 ml of a mixture of 6 M guanidine-HCl, 0.20 M Tris-Cl (pH 8.0), 1 mM DTNB and calculated using a molar extinction coefficient of 13,600 M^−1cm^−1. DTNB reducing activity of thioredoxin reductase by using NADPH was measured at 412 nm in 100 mM potassium phosphate (pH 7.0) containing 10 mM EDTA, 0.2 mM NADPH, 5 mM DTNB and 0.1 mg per ml of bovine serum albumin.\n(§3) To test whether or not Compound A inhibited thioredoxin reductase, enzyme assays were performed.\n(§4) Then 0.5 ml of a mixture containing 6 M guranidine HCl, 0.20 M Tris-HCl (pH 8.0) and 1 mM DTNB was added to stop the reaction and the absorbance at 412 nm was used to calculate the amount of SH-groups generated in insulin. In (B), 10 nM calf thymus thioredoxin reductase was preincubated with or without 50 μM compound A and 100 μM NADPH for 1 h. Then 10 μl of the resulting solution was added to 500 μl of a mixture of 0.1 M Tris-HCl (pH 8.0), 1 mM EDTA and 5 mM DTNB to determine activity at 412 nm. Activity is expressed as the amount of SH-groups generated (μM) after 3 min."}, "[5]": {"target": "T2, calf thymus thioredoxin reductase", "test": "Trx-catalyzed insulin disulfide reduction assay", "format": "biochemical", "settings": "for SH-group: 5 μM human Trx, 10 nM calf thymus thioredoxin reductase, 3 min, 20° C.; for Activity: relative to 0 μM = 100", "method": "as §2, §3, §4"}, "[6]": {"target": "T1, human thioredoxin reductase", "settings": "human Trx-S2, comparison value, cited from earlier work"}, "[7]": {"settings": "2 μM compound A plus 4.5 μM human Trx"}}, "note": "Like-named read-outs stand apart in the source and are kept apart here.", "data": [{"molecule": "O=c1c2ccccc2[se]n1-c1ccccc1", "note": "[Compound A, 2-phenyl-1,2-benzisoselenazol-3(2H)-one]", "values": [{"measurement": "turnover of Compound A", "setting": "[1]", "result": 23, "unit": "min⁻¹"}, {"measurement": "enzyme turnover", "setting": "[1]; compound A", "result": 1328, "unit": "min⁻¹"}, {"measurement": "NADPH oxidation rate", "setting": "[1]; same rate with 1, 2 and 5 μM compound A", "result": 23, "unit": "µM/min"}, {"measurement": "oxidation rate of Trx-(SH)2", "setting": "E.coli Trx-(SH)2", "result": "> 2e+07", "unit": "M⁻¹ s⁻¹"}, {"measurement": "Kcal", "setting": "[2]; 15 nM enzyme, 5, 10 and 20 μM compound A", "result": "1000 ± 300", "unit": "min⁻¹"}, {"measurement": "Km", "setting": "[2]; 15 nM enzyme, 5, 10 and 20 μM compound A, read-out: Km-value as substrate for thioredoxin reductase", "result": "< 5", "unit": "µM"}, {"measurement": "time until reaction complete", "setting": "[2]; 50 μM Compound A, 40 nM human thioredoxin reductase, 100 μM NADPH", "result": 1, "unit": "min"}, {"measurement": "absorbance at 412 nm after DTNB addition (formation of selenol groups)", "setting": "[2]; 6 M guanidine hydrochloride containing DTNB added at 7 min, 50 μM Compound A, 40 nM enzyme", "result": 0.400}, {"measurement": "effect on reaction rate of hydrogen peroxide reduction", "setting": "[3]; 0.5 μM compound A, 17 nM thioredoxin reductase", "result": "increased the reaction rate"}, {"measurement": "effect on reaction rate of hydrogen peroxide reduction", "setting": "[3]; 5.5 μM compound A, 17 nM thioredoxin reductase", "result": "stimulated strongly"}, {"measurement": "fold increase of enzyme activity at low hydrogen peroxide concentration", "setting": "[3]; 100 μM hydrogen peroxide, 17 nM thioredoxin reductase, 2 μM Compound A", "result": "about 25 fold"}, {"measurement": "turnover of enzyme (hydrogen peroxide reduction)", "setting": "[3]; 2 μM compound A", "result": 450, "unit": "min⁻¹"}, {"measurement": "turnover of enzyme (hydrogen peroxide reduction)", "setting": "[3]; [7]", "result": 900, "unit": "min⁻¹"}, {"measurement": "fold increase of hydrogen peroxide reductase activity", "setting": "[3]; [7]", "result": 30, "unit": "fold"}, {"measurement": "fold increase of hydrogen peroxide reductase activity", "setting": "[3]; 2 μM compound A", "result": 15, "unit": "fold"}, {"measurement": "inhibition of thioredoxin reductase with DTNB as substrate", "setting": "[4]; 50 μM Compound A and 10 nM enzyme", "result": "No inhibition"}, {"measurement": "SH-group", "setting": "[4]; 50 μM Compound A preincubated with 10 nM enzyme and 100 μM NADPH for 1 h, after 3 min", "result": 7.5, "unit": "µM"}, {"measurement": "Activity", "setting": "[4]; 50 μM Compound A, preincubation 1 h, relative to 0 μM = 100", "result": 103, "unit": "%"}, {"measurement": "inhibition of the enzyme after preincubation with compound A", "setting": "[4]; preincubation in the presence or absence of NADPH", "result": "did not inhibit"}, {"measurement": "effect in insulin disulfide reduction assay using thioredoxin and thioredoxin reductase", "setting": "[5]", "result": "only a small effect"}, {"measurement": "SH-group", "setting": "[5]; 5 μM Compound A", "result": 70.6, "unit": "µM"}, {"measurement": "Activity", "setting": "[5]; 5 μM Compound A", "result": 89, "unit": "%"}, {"measurement": "SH-group", "setting": "[5]; 10 μM Compound A", "result": 68.4, "unit": "µM"}, {"measurement": "Activity", "setting": "[5]; 10 μM Compound A", "result": 88, "unit": "%"}]}, {"molecule": "B1", "values": [{"measurement": "Kcal", "setting": "[6]", "result": 3000, "unit": "min⁻¹"}, {"measurement": "Km", "setting": "[6]; read-out: Km-value as substrate for thioredoxin reductase", "result": 2.5, "unit": "µM"}]}]}
